Results on eleven molecules are retold here after US20230357179A1, “RAF KINASE INHIBITORS AND METHODS OF USE THEREOF” (Deciphera Pharmaceuticals, LLC, priority 2021, published 2023).

The first experiment deals with T1, A-Raf kinase (Homo sapiens, UniProt P10398, Y301D/Y302D).
T1 construct: purchased Sigma
T1 sequence (P10398 with tags, fused parts or gaps Y301D/Y302D): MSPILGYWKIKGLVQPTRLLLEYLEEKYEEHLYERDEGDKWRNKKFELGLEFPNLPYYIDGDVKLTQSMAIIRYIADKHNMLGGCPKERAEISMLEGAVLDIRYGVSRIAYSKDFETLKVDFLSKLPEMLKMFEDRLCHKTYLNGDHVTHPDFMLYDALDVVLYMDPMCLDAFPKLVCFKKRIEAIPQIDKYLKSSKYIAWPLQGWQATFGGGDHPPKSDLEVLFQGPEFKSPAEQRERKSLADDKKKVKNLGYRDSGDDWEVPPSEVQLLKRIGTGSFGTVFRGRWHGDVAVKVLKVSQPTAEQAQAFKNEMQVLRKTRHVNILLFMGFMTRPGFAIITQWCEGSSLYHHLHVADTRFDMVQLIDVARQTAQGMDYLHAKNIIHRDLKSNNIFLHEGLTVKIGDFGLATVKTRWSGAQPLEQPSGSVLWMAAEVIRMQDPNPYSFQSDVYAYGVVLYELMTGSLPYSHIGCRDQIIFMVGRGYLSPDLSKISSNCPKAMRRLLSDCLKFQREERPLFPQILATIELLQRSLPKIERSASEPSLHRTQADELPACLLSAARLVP
The experiment is described as follows: Biochemical assay for A-Raf.1 (coupled pyruvate kinase/lactate dehydrogenase). The note with it: read-out: ARAF.1 IC50. The procedure, abridged: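 IC50 values came from four-parameter sigmoidal fits of percent inhibition, using rates over the 4 to 5 h window of continuous A340 readings (6 h, 30° C). The coupled PK/LDH system tracked NADH oxidation during 5.55 nM A-Raf activity on 30.1 nM MEK at 1 mM ATP, buffer pH 7.5.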
Consider `COC(C)(C)CCNC(=O)Nc1cnc(C)c(-c2nccc(-c3ccnc(NC(=O)C4CC4)c3)n2)c1` [Example 82], for which the IC50 was > 1000 nM.

`COC(C)(C)CCNC(=O)Nc1cc(-c2nccc(-c3ccnc(NC(=O)C4CC4)c3)n2)c(C)cc1F` [Example 83]: the IC50 was in the range of 500 to 1000 nM.

Turning to `COC1(CCNC(=O)Nc2cnc(C)c(-c3cccc(-c4cc(NC(=O)C5CC5)ncn4)c3)c2)CC1` [Example 84], the IC50 was > 1000 nM.

As to `Cc1ccc(NC(=O)N2CC[C@H](C(F)(F)F)C2)cc1-c1cncc(-c2cc(NC(=O)C3CC3)ncn2)c1` [Example 195], the IC50 was 500 to 1000 nM.

As to `Cc1ccc(NC(=O)N2CC[C@H](C(F)(F)F)C2)cc1-c1cccc(-c2cc(NC(=O)C3CC3)ncn2)c1` [Example 200], the IC50 is > 1000 nM.

For the molecule `Cc1ccc(NC(=O)N2CC[C@@H](C(F)(F)F)C2)cc1-c1cccc(-c2cc(NC(=O)C3CC3)ncn2)c1` [Example 201], the IC50 is > 1000 nM.

Turning to `CNC(=O)c1cc(-c2cc(-c3cc(NC(=O)NC4CCCCC4)c(F)cc3C)cc(OCCO)n2)ccn1` [Example 205], the IC50 was > 1000 nM.

Take `CNC(=O)c1cc(-c2cncc(-c3cc(NC(=O)N4CC[C@H](C(F)(F)F)C4)c(F)cc3C)c2)ccn1` [Example 214]: the IC50 was > 1000 nM.

Regarding `Cc1cc(F)c(NC(=O)N2CC[C@H](C(F)(F)F)C2)cc1-c1cncc(-c2cc(NC(=O)C3CC3)ncn2)c1` [Example 216], the IC50 lay within 100 to 500 nM.

Consider `Cc1ccc(NC(=O)N2CC[C@@H](C(C)C)C2)cc1-c1cncc(-c2cc(NC(=O)C3CC3)ncn2)c1` [Example 217], for which the IC50 lay in the range of 100 to 500 nM.

As to `Cc1ccc(NC(=O)N2CC[C@H](C(C)C)C2)cc1-c1cncc(-c2cc(NC(=O)C3CC3)ncn2)c1` [Example 221], the IC50 was in the range of 100 to 500 nM.

The next experiment concerns Miapaca-2 cells. The experiment is described as follows: MiaPaca-2 cell proliferation assay (1), resazurin, 96-well. The note with it: Homo sapiens, MIA PaCa-2, inhibition of cell proliferation. Format: cell-based. In outline:
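Three thousand cells per well in DMEM with 10% FBS and 2.5% horse serum exposed to serially diluted compound in triplicate for 67-72 h at 37 °C, 5% CO2. Viability by resazurin (additional 5-6 h), fluorescence ex 540/em 600 nm; IC50 calculated.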
For `COC(C)(C)CCNC(=O)Nc1cnc(C)c(-c2nccc(-c3ccnc(NC(=O)C4CC4)c3)n2)c1` [Example 82], the IC50 was in the range of 1000 to 10000 nM.

Turning to `COC(C)(C)CCNC(=O)Nc1cc(-c2nccc(-c3ccnc(NC(=O)C4CC4)c3)n2)c(C)cc1F` [Example 83], the IC50 was in the range of 1000 to 10000 nM.

For the molecule `COC1(CCNC(=O)Nc2cnc(C)c(-c3cccc(-c4cc(NC(=O)C5CC5)ncn4)c3)c2)CC1` [Example 84], the IC50 was 1000 to 10000 nM.

With `Cc1ccc(NC(=O)N2CC[C@H](C(F)(F)F)C2)cc1-c1cncc(-c2cc(NC(=O)C3CC3)ncn2)c1` [Example 195], the concentration for half-maximal inhibition (IC50) was 1000 to 10000 nM.

In the case of `Cc1ccc(NC(=O)N2CC[C@H](C(F)(F)F)C2)cc1-c1cccc(-c2cc(NC(=O)C3CC3)ncn2)c1` [Example 200], the IC50 lay in the range of 1000 to 10000 nM.

Take `Cc1ccc(NC(=O)N2CC[C@@H](C(F)(F)F)C2)cc1-c1cccc(-c2cc(NC(=O)C3CC3)ncn2)c1` [Example 201]: the IC50 was 1000 to 10000 nM.

In the case of `CNC(=O)c1cc(-c2cc(-c3cc(NC(=O)NC4CCCCC4)c(F)cc3C)cc(OCCO)n2)ccn1` [Example 205], the IC50 lay within 1000 to 10000 nM.

On to `CNC(=O)c1cc(-c2cncc(-c3cc(NC(=O)N4CC[C@H](C(F)(F)F)C4)c(F)cc3C)c2)ccn1` [Example 214], for which the IC50 was 1000 to 10000 nM.

`Cc1cc(F)c(NC(=O)N2CC[C@H](C(F)(F)F)C2)cc1-c1cncc(-c2cc(NC(=O)C3CC3)ncn2)c1` [Example 216]: the IC50 was in the range of 1000 to 10000 nM.

For the molecule `Cc1ccc(NC(=O)N2CC[C@@H](C(C)C)C2)cc1-c1cncc(-c2cc(NC(=O)C3CC3)ncn2)c1` [Example 217], the IC50 lay in the range of 500 to 1000 nM.

With `Cc1ccc(NC(=O)N2CC[C@H](C(C)C)C2)cc1-c1cncc(-c2cc(NC(=O)C3CC3)ncn2)c1` [Example 221], the 50% inhibitory concentration (IC50) was 500 to 1000 nM.

In another experiment the target is T2, C-Raf kinase (Homo sapiens, UniProt P04049, Y340D/Y341D).
T2 construct: Y340D,; GST (N); purchased Sigma
T2 sequence (P04049 307-648 Y340D/Y341D): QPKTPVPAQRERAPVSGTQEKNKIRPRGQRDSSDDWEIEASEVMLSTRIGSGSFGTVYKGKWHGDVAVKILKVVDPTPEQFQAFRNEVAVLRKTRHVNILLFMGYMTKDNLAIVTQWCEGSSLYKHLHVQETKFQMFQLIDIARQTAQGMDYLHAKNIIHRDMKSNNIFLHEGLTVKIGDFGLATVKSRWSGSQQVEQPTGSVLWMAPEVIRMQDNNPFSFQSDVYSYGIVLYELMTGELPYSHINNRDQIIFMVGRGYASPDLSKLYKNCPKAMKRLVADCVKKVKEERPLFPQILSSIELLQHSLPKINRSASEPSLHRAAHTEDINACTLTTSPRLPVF
The experiment is described as follows: Biochemical assay for C-Raf.1 (coupled pyruvate kinase/lactate dehydrogenase). The note with it: read-out: CRAF.1 IC50. In outline:
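NADH depletion at 340 nm monitored continuously for 6 h at 30° C, with rates taken over 4–5 h. The coupled pyruvate kinase/lactate dehydrogenase reaction used 1 mM ATP, 30.1 nM MEK substrate and 0.43 nM kinase at pH 7.5. IC50 was fitted sigmoidally from percent inhibition of serially diluted compound.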
For the molecule `COC(C)(C)CCNC(=O)Nc1cnc(C)c(-c2nccc(-c3ccnc(NC(=O)C4CC4)c3)n2)c1` [Example 82], the IC50 was ≤ 100 nM.

Consider `COC(C)(C)CCNC(=O)Nc1cc(-c2nccc(-c3ccnc(NC(=O)C4CC4)c3)n2)c(C)cc1F` [Example 83], for which the IC50 is ≤ 100 nM.

With `COC1(CCNC(=O)Nc2cnc(C)c(-c3cccc(-c4cc(NC(=O)C5CC5)ncn4)c3)c2)CC1` [Example 84], the half-inhibitory concentration (IC50) is ≤ 100 nM.

Take `Cc1ccc(NC(=O)N2CC[C@H](C(F)(F)F)C2)cc1-c1cncc(-c2cc(NC(=O)C3CC3)ncn2)c1` [Example 195]: the IC50 was ≤ 100 nM.

For `Cc1ccc(NC(=O)N2CC[C@H](C(F)(F)F)C2)cc1-c1cccc(-c2cc(NC(=O)C3CC3)ncn2)c1` [Example 200], the IC50 was ≤ 100 nM.

For the molecule `Cc1ccc(NC(=O)N2CC[C@@H](C(F)(F)F)C2)cc1-c1cccc(-c2cc(NC(=O)C3CC3)ncn2)c1` [Example 201], the IC50 is ≤ 100 nM.

For `CNC(=O)c1cc(-c2cc(-c3cc(NC(=O)NC4CCCCC4)c(F)cc3C)cc(OCCO)n2)ccn1` [Example 205], the half-inhibitory concentration (IC50) was ≤ 100 nM.

With `CNC(=O)c1cc(-c2cncc(-c3cc(NC(=O)N4CC[C@H](C(F)(F)F)C4)c(F)cc3C)c2)ccn1` [Example 214], the IC50 was in the range of 100 to 500 nM.

For the molecule `Cc1cc(F)c(NC(=O)N2CC[C@H](C(F)(F)F)C2)cc1-c1cncc(-c2cc(NC(=O)C3CC3)ncn2)c1` [Example 216], the IC50 was ≤ 100 nM.

In the case of `Cc1ccc(NC(=O)N2CC[C@@H](C(C)C)C2)cc1-c1cncc(-c2cc(NC(=O)C3CC3)ncn2)c1` [Example 217], the IC50 was ≤ 100 nM.

`Cc1ccc(NC(=O)N2CC[C@H](C(C)C)C2)cc1-c1cncc(-c2cc(NC(=O)C3CC3)ncn2)c1` [Example 221]: the IC50 was ≤ 100 nM.

In a further experiment the target is T3, B-Raf (V600E) kinase (Homo sapiens, UniProt P15056, V600E).
T3 construct: B-Raf (V600E) residues 416-766 with a; GST (N); purchased SignalChem
T3 sequence (P15056 416-766 V600E): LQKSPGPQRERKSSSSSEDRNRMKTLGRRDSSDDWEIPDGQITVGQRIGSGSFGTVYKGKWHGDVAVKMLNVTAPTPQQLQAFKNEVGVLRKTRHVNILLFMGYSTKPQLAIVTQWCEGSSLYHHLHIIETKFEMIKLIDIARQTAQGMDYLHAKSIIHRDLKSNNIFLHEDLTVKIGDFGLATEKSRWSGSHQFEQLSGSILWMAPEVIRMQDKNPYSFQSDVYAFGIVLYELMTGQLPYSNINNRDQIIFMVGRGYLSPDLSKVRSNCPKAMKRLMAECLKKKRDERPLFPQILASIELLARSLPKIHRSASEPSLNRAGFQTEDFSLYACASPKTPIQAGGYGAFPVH
The experiment is described as follows: Biochemical assay for B-Raf (V600E).1 (coupled pyruvate kinase/lactate dehydrogenase). The note with it: read-out: BRAF V600E.1 IC50. The procedure, abridged:
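IC50 came from four-parameter sigmoidal fits of percent inhibition, using reaction rates over 3-4 h. Continuous A340 reading (6 h, 30 °C) of a pyruvate kinase/lactate dehydrogenase-coupled reaction: B-Raf V600E 0.03 nM, MEK 30.1 nM, ATP 1 mM, Tris pH 7.5, 1% DMSO.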
With `COC(C)(C)CCNC(=O)Nc1cnc(C)c(-c2nccc(-c3ccnc(NC(=O)C4CC4)c3)n2)c1` [Example 82], the IC50 was ≤ 100 nM.

As for `COC(C)(C)CCNC(=O)Nc1cc(-c2nccc(-c3ccnc(NC(=O)C4CC4)c3)n2)c(C)cc1F` [Example 83], the IC50 was ≤ 100 nM.

Take `COC1(CCNC(=O)Nc2cnc(C)c(-c3cccc(-c4cc(NC(=O)C5CC5)ncn4)c3)c2)CC1` [Example 84]: the IC50 was ≤ 100 nM.

`Cc1ccc(NC(=O)N2CC[C@H](C(F)(F)F)C2)cc1-c1cncc(-c2cc(NC(=O)C3CC3)ncn2)c1` [Example 195]: the half-inhibitory concentration (IC50) was ≤ 100 nM.

`Cc1ccc(NC(=O)N2CC[C@H](C(F)(F)F)C2)cc1-c1cccc(-c2cc(NC(=O)C3CC3)ncn2)c1` [Example 200]: the IC50 is ≤ 100 nM.

On to `Cc1ccc(NC(=O)N2CC[C@@H](C(F)(F)F)C2)cc1-c1cccc(-c2cc(NC(=O)C3CC3)ncn2)c1` [Example 201], for which the IC50 was ≤ 100 nM.

As for `CNC(=O)c1cc(-c2cc(-c3cc(NC(=O)NC4CCCCC4)c(F)cc3C)cc(OCCO)n2)ccn1` [Example 205], the half-inhibitory concentration (IC50) is ≤ 100 nM.

Take `CNC(=O)c1cc(-c2cncc(-c3cc(NC(=O)N4CC[C@H](C(F)(F)F)C4)c(F)cc3C)c2)ccn1` [Example 214]: the IC50 lay within 100 to 500 nM.

In the case of `Cc1cc(F)c(NC(=O)N2CC[C@H](C(F)(F)F)C2)cc1-c1cncc(-c2cc(NC(=O)C3CC3)ncn2)c1` [Example 216], the IC50 was ≤ 100 nM.

Take `Cc1ccc(NC(=O)N2CC[C@@H](C(C)C)C2)cc1-c1cncc(-c2cc(NC(=O)C3CC3)ncn2)c1` [Example 217]: the IC50 was ≤ 100 nM.

Regarding `Cc1ccc(NC(=O)N2CC[C@H](C(C)C)C2)cc1-c1cncc(-c2cc(NC(=O)C3CC3)ncn2)c1` [Example 221], the IC50 was ≤ 100 nM.
